Active and inactive are the calls of the source. The calls are words filed in the database; no cut-off is given here.
Experiments:
[1] = AUC (0 to t) in Sprague-Dawley rat plasma at 10 mg/kg, po measured upto 24 hrs by LC-MS/MS analysis; assay type: ADME, organism-based
4T1 [2] = assay: Induction of apoptosis in mouse 4T1 cells assessed as apoptotic rate at 40 micromol/L incubated for 24 hrs by Annexin-V/PI staining based flow cytometry relative to control; assay type: functional; conditions: dose 40 µmol/L, at 40 µM
4T1 [3] = assay: Induction of G0/G1 phase cell cycle arrest in mouse 4T1 cells assessed as decrease in S phase cells at 1.25 to 40 uM incubated for 24 hrs by flow cytometry; assay type: functional, cell-based; conditions: dose 1.25-40 µM
4T1 [4] = assay: Induction of mitochondrial membrane potential loss in mouse 4T1 cells assessed as green fluorescence at 10 uM incubated for 24 hrs by JC-1 staining based flow cytometric analysis (reference value: 11.7%); assay type: cell-based
4T1 [5] = assay: Inhibition of cell migration in mouse 4T1 cells assessed as expansion of wound area at 30 micromol/mL incubated for 24 hrs by microscopic analysis; assay type: functional, cell-based; conditions: dose 30.0 µmol/ml
4T1 [6] = assay: Antitumor activity against mouse 4T1 cells implanted in BALB/c mouse assessed as tumor growth inhibition at 0.2 mmol/Kg, po administered once every day for 14 days relative to control; assay type: functional; conditions: 4T1, 336 h, time 14 day, read-out: TGI
[7] = Half life in Sprague-Dawley rat plasma at 10 mg/kg, po measured upto 24 hrs by LC-MS/MS analysis; assay type: ADME, organism-based
4T1 [8] = assay: Antitumor activity against mouse 4T1 cells implanted in BALB/c mouse assessed as tumor cell shrinkage at 0.2 mmol/Kg, po administered once every day for 14 days by histological staining based analysis; assay type: functional, organism-based; conditions: time 14.0 day
[9] = Toxicity in BALB/c mouse implanted with mouse 4T1 cells assessed as increase in spleen edema at 0.2 mmol/Kg, po administered once every day for 14 days relative to control; assay type: organism-based; conditions: in vivo, 336 h, time 14 day
4T1 [10] = assay: Induction of apoptosis in mouse 4T1 cells assessed as increase in Bax expression at 10 uM incubated for 24 hrs by Western blot analysis; assay type: functional, cell-based
4T1 [11] = assay: Inhibition of cell invasion in mouse 4T1 cells at 30 micromol/mL incubated for 24 hrs by microscopic analysis; assay type: functional, cell-based; conditions: dose 30.0 µmol/ml
[12] = Oral bioavailability in Sprague-Dawley rat at 10 mg/kg measured upto 24 hrs by LC-MS/MS analysis; assay type: ADME, organism-based; conditions: in vivo
4T1 [13] = assay: Induction of cell cycle arrest in mouse 4T1 cells assessed as accumulation of cells in G0/G1 phase at 10 uM incubated for 24 hrs by flow cytometry relative to control; assay type: functional
4T1 [14] = assay: Induction of mitochondrial membrane potential loss in mouse 4T1 cells assessed as red fluorescence at 10 uM incubated for 24 hrs by JC-1 staining based flow cytometric analysis (Rvb= 87.9%); assay type: cell-based
4T1 [15] = assay: Induction of cell cycle arrest in mouse 4T1 cells assessed as accumulation of cells in G0/G1 phase at 40 micromol/L incubated for 24 hrs by flow cytometry (reference value: 53.6%); assay type: functional; conditions: dose 40 µmol/L, at 40 µM

CCCCCCCCCCCCOC(=O)C1CCC[N+]1(C)C.[Cl-] (stereo not given)
AUC(0-t) at 24 h [1]: 14800 ng·h/mL | Activity (4T1 [2]): 71.3% | Activity (4T1 [3]): Active | Activity (4T1 [4]): 56.8% | inhibition (4T1 [5]): Active | inhibition in vivo at 200 µmol/kg (4T1 [6]): 56.3% | half-life [7]: 7.62 h | Activity (4T1 [8]): Active | Activity [9]: Toxic | Activity (4T1 [10]): Active | inhibition (4T1 [11]): Active | bioavailability [12]: 79.6% | Activity (4T1 [13]): ~56% | Activity (4T1 [14]): 43.1% | Activity (4T1 [15]): 64.5%

Source: ChEMBL document CHEMBL5625202, “Synthesis, characterization and anti-breast cancer activities of stachydrine derivatives” (Eur J Med Chem, 2023)
